Common to all, as to format: cell-based, human
Series [1] concerns TCR-positive cells. The series can be described thus: Annexin staining of TCR-positive PBL, flow cytometry (cell death). Particulars: PHA 5 μg/ml plus 10 μM dexamethasone; printed as decreased from 84%. As to the method:
After this incubation, PHA was added to give a final concentration of 5 μg/ml, and the cells were incubated for an additional 72 hours at 37° C., 5% CO2. All cultures were performed in triplicate. Cells were then removed by centrifugation at 1000 rpm for 10 minutes.
The cells were further analyzed by flow cytometry. Annexin was used to determine populations of dead or dying cells. Anti-CD69 antibody was used to establish the level of cellular activation. Antibody to T-cell receptor αβ (TCR) was also used. Recombinant Annexin 5 (PE and FITC conjugates) and the antibodies were all purchase from Caltag (Burlingham, Calif.) and used following the manufacturer's recommendations.
(In general: Flow cytometry measures light scatter and fluorescence of single cells or particles in a stream.)

In series [2] the test system is IL-8. The series can be described thus: IL-8 release from LPS-stimulated THP-1 monocytes, ELISA. The following applies: THP-1, LPS 200 ng/ml, Cpd II 15 μg/ml, Dex 10 μM. Here is the method:
(§1) THP-1 is a monocyte cell line obtained from American Type Culture Collection (ATCC) (catalog no. TIB-202). […] After 1 hour, lipopolysaccharide (LPS) (obtained from Sigma) was added to the cultures to give a final concentration of 200 ng/ml, and the cells were then incubated for an additional 4 hours or for an additional 24 hours. After the incubation, the cells were centrifuged, and the supernatants were collected. The concentrations of IL-8 and TNFα in the supernatants were determined by ELISA.
The concentrations of IL-8 in the supernatants were determined by ELISA performed as described in Example 4.
For orientation: In an ELISA, binding on a coated surface is turned into a signal by an enzyme label.

For series [3], the system named is TNFα. The series can be described thus: TNFα release from LPS-stimulated THP-1 monocytes, ELISA. The following applies: THP-1, LPS 200 ng/ml, 24 hours; Cpd II 15 μg/ml, Dex 10 μM; LPS alone 138.655. As to the method:
as §1
The TNFα ELISA was performed as described in Example 2.

In series [4] the test system is IL-8. Put plainly: IL-8 release by TNFα-stimulated HUVECs, ELISA. Particulars: 10 ng/ml TNFα + 10 μM; 18 hours; TNFα + water 35572. Here is the method:
Passage 4 HUVECs, human source lot number 8710 (obtained from ATCC), were put into the wells of a 24-well tissue culture plate at 5,000 cells/well in EGM-2 medium (obtained from Cambrex) and cultured for 72 hours at 37° C. and 5% CO2. […] After incubation for 1 hour at 37° C. and 5% CO2, TNFα (obtained from Pierce) was added to give a final concentration of 10 ng/ml, and the cells were incubated for an additional 18 hours at 37° C. and 5% CO2. After this incubation, the supernatants were collected, and the amount of IL-8 in the supernatants determined by ELISA as described in Example 4.

For series [5], the system named is NFκB. The series can be described thus: Activated NFκB in VEGF-treated HUVECs, TransAM assay. Particulars: VEGF 10 ng/ml + 10 μM, control 0.070, VEGF only 0.111. Here is the method: Passage 5 HUVECs, human source lot number 8750 (obtained from ATCC), were grown to confluence in 25 cm^2 flasks in EGM-2 medium. The following additives were added to the flasks (total volume of 5 ml/flask) in EGM-2 medium containing 2% FCS, GA1000 (gentamycin), heparin and ascorbic acid (all from Cambrex): 1 μg/ml of the compound of formula II (Cpd II); 5 μg/ml Cpd II; 15 μg/ml of Cpd II; 15 μg/ml methylphenidate (MP); or 10 μM LY 294002. The flasks were incubated overnight at 37° C., 5% CO2 After this incubation, vascular endothelial growth factor (VEGF) (obtained from Sigma) was added to give a final concentration 10 ng/ml, and the flasks were incubated for an additional 30 minutes.
(§2) Then, the amount of NFκB was determined using a TransAM™ NFκB p65/NFκB p50 Transcription Factor Assay Kit and a Nuclear Extract Kit from Active Motif North America, Carlsbad, Calif., according to the manufacturer's instructions. Briefly, a nuclear extract of the cells was prepared using the Nuclear Extract Kit. Then, the nuclear extract was added to the wells of the 96-well plate of the TransAM™ kit. Oligonucleotide containing an NFκB consensus binding site was immobilized in the wells, and the activated NFκB contained in the nuclear extract was bound to the oligonucleotide. Then, an antibody directed against the NFκB p65 or p50 subunit was added, and the NFκB complex bound to the oligonucleotide was detected. A secondary antibody conjugated to horseradish peroxidase (HRP) was next added to provide a colorimetric readout that was quantified by spectrophotometry (measurement at 450 nm).

Series [6] concerns c-Jun. Put plainly: c-Jun in VEGF-treated HUVECs, TransAM AP-1 assay. Particulars: VEGF 10 ng/ml + 10 μM, control 0.204, VEGF only 0.261. Here is the method:
The flasks were incubated overnight at 37° C., 5% CO2 After this incubation, vascular endothelial growth factor (VEGF) (obtained from Sigma) was added to give a final concentration 10 ng/ml, and the flasks were incubated for an additional 30 minutes.
The amount of c-Jun was determined using a TransAM™ AP-1 Family Transcription Factor Assay Kit and a Nuclear Extract Kit from Active Motif North America, Carlsbad, Calif., according to manufacturer's instructions. Briefly, a nuclear extract of the cells was prepared using the Nuclear Extract Kit. Then, the nuclear extract was added to the wells of a 96-well plate in which oligonucleotide containing a TPA-responsive element (TRE) was immobilized. Activator protein-1 (AP-1) dimers contained in the nuclear extract were bound to this oligonucleotide and were detected using an antibody specific for c-Jun. A secondary antibody conjugated to horseradish peroxidase (HRP) was next added to provide a colorimetric readout that was quantified by spectrophotometry (measurement at 450 nm).

Series [7] deals with NFκB. Put plainly: Activated NFκB in TNFα- or VEGF-treated HIAECs, TransAM assay. The following applies: TNFα + LY 294002, control 0.174, TNFα only 0.881. Here is the method: as §2
Passage 8 (human iliac artery endothelial cells (HIAECs) (obtained from ATCC; catalog no. CC-2545) were grown to confluence in 25 cm^2 flasks in EGM-2 medium. Eighteen hours prior to the experiment, the medium was replaced with EGM-2 medium containing 0.1% FCS plus heparin, GA1000 (gentamycin) and bovine pituitary extract (all from Cambrex) to place the cells in a resting state. To perform the experiment the medium was aspirated from the flasks, and the following additives were added to the flasks in fresh medium (total volume of 5 ml/flask): 15 μg/ml of the compound of formula II (Cpd II) or 10 μM LY 294002. The flasks were incubated 2 hours at 37° C., 5% CO2 After this incubation, VEGF or TNFα was added to give a final concentration 10 ng/ml, and the flasks were incubated for an additional 30 minutes. Then, the amount of NFκB was determined using a TransAM™ NFκB p65/NFκB p50 Transcription Factor Assay Kit and a Nuclear Extract Kit from Active Motif North America, Carlsbad, Calif., as described in Example 9.

Data on two molecules can be found in patent US20060183773A1, “Uses of methylphenidate derivatives” (priority 2005, published 2006).

In the case of `C[C@@H]1C[C@H]2[C@@H]3CCC4=CC(=O)C=C[C@]4(C)[C@@]3(F)[C@@H](O)C[C@]2(C)[C@@]1(O)C(=O)CO` [dexamethasone, reference compound], in series [1], the “Annexin staining of TCR-positive cells” value is on record as 48%. For the same molecule, the “% Inhibition (IL-8)” value is listed as 26% in series [2] (4 hours) and 66% in series [2] (24 hours). Besides, the “Mean IL-8 Concentration” value in series [2] (24 hours, LPS alone 6653.20) stood at 2300.00 ± 283.41 pg/mL. Further, the “Mean TNFα Concentration” value in series [3] was 94.759 ± 8.755 pg/mL.

`O=c1cc(N2CCOCC2)oc2c(-c3ccccc3)cccc12` [LY 294002, reference compound]: in series [4], the “Mean IL-8” value came out at 9196.1 ± 150.97 pg/mL. Further, the “Mean OD 450 nm (NFκB)” value in series [5] was determined as 0.138 ± 0.008; in series [7], 0.810 ± 0.007. The “Mean OD 450 nm (c-Jun)” value in series [6] was determined as 0.340 ± 0.020.
